In brackets after ≈: the same amount, converted by molar mass.

The first assay has as its system Mycobacterium tuberculosis.
Test: not given
It counts as functional.
On to `Cc1c(NCc2nnc(-c3ccc(N)cc3)o2)c(=O)n(-c2ccccc2)n1C`, for which the Ratio turned out to be 1.4.

Turning to `Cc1c(NCc2nnc(-c3ccncc3)o2)c(=O)n(-c2ccccc2)n1C`, the Ratio is on record as 7.6.

In a further assay the test system is Mycobacterium tuberculosis. The experiment in a line: microbe, parasite or virus in culture.
Turning to `Cc1c(NCc2nnc(-c3ccccc3Cl)o2)c(=O)n(-c2ccccc2)n1C`, the MIC90 turned out to be 12.7 µM (≈ 5.01 µg/mL).

With `Cc1c(NCc2nnc(-c3ccc(Cl)cc3)o2)c(=O)n(-c2ccccc2)n1C`, the MIC90 stood at 12.7 µM (≈ 5.01 µg/mL). Still for that read-out and setting: the value for `Cc1c(NCc2nnc(-c3ccc(N)cc3)o2)c(=O)n(-c2ccccc2)n1C` was 8.29 µM (≈ 3.12 µg/mL); that for `Cc1c(NCc2nnc(-c3ccncc3)o2)c(=O)n(-c2ccccc2)n1C` was 1.52 µM (≈ 0.551 µg/mL). Still for that read-out and setting: the figure for `Cc1c(NCc2nnc(-c3ccccc3)o2)c(=O)n(-c2ccccc2)n1C` is 13.8 µM (≈ 4.99 µg/mL); for `Cc1ccc(-c2nnc(CNc3c(C)n(C)n(-c4ccccc4)c3=O)o2)cc1` it is 13.3 µM (≈ 5 µg/mL). The same measure, in the same setting: the figure for `Cc1c(NCc2nnc(Cc3ccccc3)o2)c(=O)n(-c2ccccc2)n1C` is above 13.3 µM; for `Cc1c(NCc2nnc(COc3ccccc3)o2)c(=O)n(-c2ccccc2)n1C` it is 12.8 µM (≈ 5 µg/mL).

With `Cc1c(NCc2nnc(-c3cccs3)o2)c(=O)n(-c2ccccc2)n1C`, the MIC90 was determined as 13.6 µM (≈ 5 µg/mL).

Turning to `NNC(=O)c1ccncc1` [ISONIAZID], the MIC90 is 11.6 µM (≈ 1.59 µg/mL).

For the origin of these results see ChEMBL document CHEMBL1921682, “Molecular properties prediction and synthesis of novel 1,3,4-oxadiazole analogues as potent antimicrobial and antitubercular agents” (Bioorg Med Chem Lett, 2011).
